The values that follow come from ChEMBL document CHEMBL1201862, “PubChem BioAssay data set” (2004).

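Each compound was tested at five concentrations against cells in 96-well plates for 48 hours. Here, GI50 denotes the concentration required for 50% inhibition of growth.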 The source made the active and inactive calls. No stated cut-off is given here; in the data, active = GI50 up to about 1.1 µM and inactive = higher. A value given as a limit tells only on which side of the number the result lay.

Some test systems named below: A498; ACHN; BT-549; CAKI-1; DU-145; EKVX; HCC 2998; HOP-62; IGROV-1; MDA-N; NCI-H23; NCI-H522; NCI/ADR-RES; OVCAR-3; OVCAR-8; RXF 393; SF-295; SNB-19; SNB-75; KM-20L2.
What all share (assay): growth of human tumour cells (NCI), 48 h

For the compound `COc1cc(O)c2c(=O)c(OC)c(-c3ccc(OC)c(O)c3)oc2c1` [AYANIN], the GI50 is 3.44 µM (inactive) in the test on A498; 33.1 µM (inactive) in the test with ACHN; 20.4 µM (inactive) with BT-549; 6.71 µM (inactive) with CAKI-1; 20 µM (inactive) in the test with DU-145; 62.5 µM (inactive) in the test with EKVX. Besides, the GI50 was 28.2 µM (inactive) in the test with HCC 2998; 31.5 µM (inactive) with HOP-62; 25.4 µM (inactive) in the test with IGROV-1; 73.1 µM (inactive) in the test on MDA-N; 69.5 µM (inactive) with NCI-H23; 29.1 µM (inactive) in the test with NCI-H522. In addition, the GI50 with NCI/ADR-RES was > 100 µM (inactive); in the test on OVCAR-3 it was 63.8 µM (inactive); in the test on OVCAR-8, 66.5 µM (inactive); with RXF 393, 57.3 µM (inactive); with SF-295, 7.78 µM (inactive); in the test on SNB-19, > 100 µM (inactive). Moreover, in the test on SNB-75, the GI50 was 6.14 µM (inactive).
`CSc1nc(Cl)c2c(n1)Sc1nc3ccccc3n1C2O` (centres undefined): the GI50 in the test on A498 is > 79.1 µM (inactive); in the test on ACHN it was 5.89 µM (inactive); with BT-549 it was 4.73 µM (inactive); with CAKI-1, 1.85 µM (inactive); in the test on DU-145, 11.4 µM (inactive); in the test with EKVX it was 33.4 µM (inactive). Besides, the GI50 is 3.91 µM (inactive) in the test on HCC 2998; 13.8 µM (inactive) in the test on HOP-62; 3.87 µM (inactive) with IGROV-1; 2.86 µM (inactive) in the test on MDA-N; 5.65 µM (inactive) in the test with NCI-H23; 2.73 µM (inactive) in the test with NCI-H522. The GI50 in the test on NCI/ADR-RES was 3.27 µM (inactive); in the test on OVCAR-3, 5.3 µM (inactive); in the test on OVCAR-8, 2.84 µM (inactive); in the test on RXF 393, 1.58 µM (inactive); in the test on SF-295, 21.3 µM (inactive); in the test on SNB-19 it was 14.4 µM (inactive). Also, the GI50 in the test on SNB-75 is 10.6 µM (inactive).
Regarding `C(=C\c1nccs1)/c1cccc(/C=C/c2nccs2)n1`, the GI50 in the test on A498 is > 50 µM (inactive); in the test with ACHN, > 50 µM (inactive); in the test on BT-549 it was > 50 µM (inactive); with CAKI-1, > 50 µM (inactive); in the test with DU-145, > 50 µM (inactive); in the test with EKVX it was 49 µM (inactive). The GI50 with HCC 2998 was 27.7 µM (inactive); in the test with HOP-62 it was > 50 µM (inactive); in the test with IGROV-1, 26.5 µM (inactive); with MDA-N, > 50 µM (inactive); in the test on NCI-H23 it was > 50 µM (inactive); in the test on NCI-H522, > 50 µM (inactive). For the same compound, the GI50 in the test with NCI/ADR-RES was > 50 µM (inactive); in the test on OVCAR-3, > 50 µM (inactive); in the test with OVCAR-8, 47.9 µM (inactive); with RXF 393, > 50 µM (inactive); in the test on SF-295, > 50 µM (inactive); with SNB-19, > 50 µM (inactive). Besides, the GI50 in the test on SNB-75 was 22 µM (inactive).
For `C=C(C)C(=O)OC1CC2(C)OC2CC(OC(C)=O)/C(C)=C/C2OC(=O)C(=C)C21` (centres undefined), the GI50 in the test on A498 was 12.9 µM (inactive); in the test on ACHN it was 1.49 µM (inactive); in the test with BT-549 it was 1.09 µM (active); with CAKI-1, 2.53 µM (inactive); with DU-145 it was 2.13 µM (inactive); with EKVX, 3.1 µM (inactive). Besides, the GI50 in the test on HCC 2998 is 6.34 µM (inactive); in the test on HOP-62, 13.1 µM (inactive); in the test on IGROV-1, 4.17 µM (inactive); in the test on MDA-N it was 2.73 µM (inactive); with NCI-H23 it was 2.76 µM (inactive); with NCI-H522, 0.124 µM (active). Besides, the GI50 in the test on NCI/ADR-RES is 2.68 µM (inactive); with OVCAR-3 it was 2.26 µM (inactive); with OVCAR-8, 2.03 µM (inactive); in the test with RXF 393 it was 2.04 µM (inactive); in the test on SF-295 it was 16.2 µM (inactive); with SNB-19, 15.2 µM (inactive). The GI50 in the test with SNB-75 is 15.5 µM (inactive).
Take `CC(C)(Cl)C(Cl)CC/C(CBr)=C(\Cl)CBr` (centres undefined): the GI50 in the test on A498 was 19.2 µM (inactive); in the test on ACHN, 3.66 µM (inactive); in the test with BT-549 it was 1.75 µM (inactive); in the test on CAKI-1, 2.62 µM (inactive); in the test on DU-145, 7.5 µM (inactive); in the test with EKVX it was 16.5 µM (inactive). Moreover, the GI50 in the test with HCC 2998 was 9.68 µM (inactive); with HOP-62, 2.24 µM (inactive); with IGROV-1 it was 1.66 µM (inactive); with MDA-N, 1.81 µM (inactive); in the test on NCI-H23, 1.85 µM (inactive); in the test on NCI-H522, 0.55 µM (active). Further, the GI50 in the test on NCI/ADR-RES was 2.77 µM (inactive); in the test on OVCAR-3, 2.64 µM (inactive); in the test with OVCAR-8, 1.95 µM (inactive); in the test on RXF 393, 1.53 µM (inactive); with SF-295, 6.49 µM (inactive); in the test with SNB-19, 11.1 µM (inactive). The GI50 with SNB-75 is 2.23 µM (inactive).
Regarding `NC(=O)c1ncn(CCN2CCN(C(=O)NCCCCCCNC(=O)N3CCN(CCn4cnc(C(N)=O)c4N)CC3)CC2)c1N`, the GI50 with ACHN, in the test on CAKI-1, with EKVX, in the test with HCC 2998, in the test with HOP-62 and with IGROV-1 was > 100 µM (inactive) each time. The GI50 in the test on KM-20L2, in the test on NCI-H23, in the test with OVCAR-3, with OVCAR-8, in the test with RXF 393 and with SF-295 was > 100 µM (inactive) each time. In addition, the GI50 in the test with SNB-19 and in the test on SNB-75 was > 100 µM (inactive) each time.
For `C(CCc1nnc2c(n1)CCCC2)Cc1nnc2c(n1)CCCC2`, the GI50 with A498, with ACHN, with BT-549, in the test on CAKI-1, with DU-145 and with EKVX was > 100 µM (inactive) throughout. The GI50 was > 100 µM (inactive) with HCC 2998; > 100 µM (inactive) in the test on HOP-62; > 100 µM (inactive) in the test with IGROV-1; 88.3 µM (inactive) in the test with MDA-N; > 100 µM (inactive) in the test on NCI-H23; > 100 µM (inactive) in the test on NCI-H522. The GI50 with NCI/ADR-RES, with OVCAR-3, in the test on OVCAR-8, with RXF 393, with SF-295 and in the test on SNB-19 was > 100 µM (inactive) throughout. The GI50 in the test with SNB-75 is > 100 µM (inactive).
For `Nc1c(C(=O)c2ccccc2)[nH]c(NCc2ccccc2)c1C(=S)Nc1ccccc1`, the GI50 with A498, in the test on ACHN, in the test with BT-549, with CAKI-1, in the test with DU-145 and with EKVX was > 100 µM (inactive) in each case. Besides, the GI50 in the test on HCC 2998, with HOP-62, in the test on IGROV-1, in the test on MDA-N, with NCI-H23 and with NCI-H522 was > 100 µM (inactive) throughout. In addition, the GI50 in the test with NCI/ADR-RES, in the test on OVCAR-3, in the test on OVCAR-8, in the test on RXF 393, in the test on SF-295 and in the test with SNB-19 was > 100 µM (inactive) each time. Further, in the test with SNB-75, the GI50 was > 100 µM (inactive).
As to `CC1(C)OC(C(=O)Nc2cc3c4ccccc4ccc3c3ccccc23)C(C(=O)N2CCCCC2)O1` (centres undefined), the GI50 in the test on A498 was > 23.9 µM (inactive); in the test with ACHN, 0.897 µM (active); in the test on BT-549, 47 µM (inactive); in the test on CAKI-1, 0.493 µM (active); with DU-145, 5.97 µM (inactive); in the test with EKVX it was > 54.8 µM (inactive). In addition, the GI50 is > 74.1 µM (inactive) in the test with HCC 2998; 17.6 µM (inactive) in the test on HOP-62; 1.32 µM (inactive) in the test on IGROV-1; 5.94 µM (inactive) in the test on MDA-N; > 21.4 µM (inactive) with NCI-H23; 0.863 µM (active) in the test with NCI-H522. The GI50 in the test with NCI/ADR-RES was 2.08 µM (inactive); in the test with OVCAR-3, 2.29 µM (inactive); in the test on OVCAR-8, 0.957 µM (active); in the test with RXF 393 it was 1.17 µM (inactive); with SF-295 it was 1.32 µM (inactive); with SNB-19, 4.2 µM (inactive). Besides, the GI50 in the test with SNB-75 was 2.74 µM (inactive).
With `C=CCn1c(-c2ccc([N+](=O)[O-])cc2)cs/c1=N\C(P(=O)(O)O)P(=O)(O)O`, the GI50 with A498, in the test with ACHN, in the test with BT-549, in the test with CAKI-1, in the test with DU-145 and in the test on EKVX was > 100 µM (inactive) in each case. Further, the GI50 in the test on HCC 2998, in the test with HOP-62, in the test with IGROV-1, in the test with MDA-N, with NCI-H23 and with NCI-H522 was > 100 µM (inactive) in each case. Moreover, the GI50 in the test on NCI/ADR-RES, in the test on OVCAR-3, in the test with OVCAR-8, with RXF 393, in the test on SF-295 and in the test with SNB-19 was > 100 µM (inactive) throughout. Besides, the GI50 in the test on SNB-75 is > 100 µM (inactive).
For the compound `CCC/C(Cl)=N\OC(=O)Nc1ccc(OC(F)(F)F)cc1`, the GI50 is 23.8 µM (inactive) in the test on A498; 2.19 µM (inactive) in the test on ACHN; 20.9 µM (inactive) in the test with BT-549; 1.66 µM (inactive) with CAKI-1; 18 µM (inactive) with DU-145; 10.1 µM (inactive) in the test with EKVX. For the same compound, the GI50 was 19.5 µM (inactive) in the test on HCC 2998; 18.1 µM (inactive) with HOP-62; 6.93 µM (inactive) in the test on IGROV-1; 13.5 µM (inactive) in the test on MDA-N; 21.4 µM (inactive) with NCI-H23; 1.08 µM (active) with NCI-H522. For the same compound, the GI50 in the test on NCI/ADR-RES is 6.98 µM (inactive); with OVCAR-3 it was 11.3 µM (inactive); in the test with OVCAR-8, 16.7 µM (inactive); with RXF 393, 16 µM (inactive); in the test on SF-295 it was 16.3 µM (inactive); in the test on SNB-19 it was 30.3 µM (inactive). Further, in the test on SNB-75, the GI50 was 15.6 µM (inactive).
